The values below come from patent US20160318933A1, “FUSED PYRAZOLE DERIVATIVE” (SUMITOMO DAINIPPON PHARMA CO., LTD., priority 2013, published 2016).

Where a name gives a salt, the structure may show the parent alone.

The target in data set [1] is T1, human brain-derived dopamine D4 receptor (Homo sapiens, UniProt P21917).
T1 construct: expressed in transfected cells; host or cells: CHO (CHO-K1) or HEK293 cells
T1 sequence (P21917 1-419): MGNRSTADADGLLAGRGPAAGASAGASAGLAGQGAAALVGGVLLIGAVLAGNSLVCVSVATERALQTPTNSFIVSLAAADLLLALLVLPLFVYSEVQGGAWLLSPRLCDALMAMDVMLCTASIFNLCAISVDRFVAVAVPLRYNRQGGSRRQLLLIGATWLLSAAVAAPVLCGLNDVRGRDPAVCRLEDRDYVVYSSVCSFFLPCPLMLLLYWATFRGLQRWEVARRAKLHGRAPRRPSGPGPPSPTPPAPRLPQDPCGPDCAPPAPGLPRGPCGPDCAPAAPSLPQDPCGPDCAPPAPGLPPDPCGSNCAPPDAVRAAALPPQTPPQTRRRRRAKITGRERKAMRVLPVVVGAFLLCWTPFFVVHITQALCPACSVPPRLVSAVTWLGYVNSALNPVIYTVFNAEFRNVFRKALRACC
Briefly: Agonistic activity in G protein dependent pathway of dopamine D4 receptor (aequorin intracellular calcium luminescence, FDSS). Format: cell-based. Particulars: for EC50: concentration required to achieve a 50% response of Emax, CHO-K1 or HEK293 cells transfected with D4 receptor; for Emax: read-out: Maximal activity on D4 receptor (%). In a few lines:
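CHO-K1 or HEK293 cells transfected with D4 receptor, cultured 24 h at 37 °C, preloaded with coelenterazine; aequorin luminescence recorded on FDSS after compound addition. Emax taken as maximal activity; EC50 as concentration giving 50% of Emax.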
(In general: Calcium assays in cells follow changes in intracellular calcium, usually with a dye or a luminescent sensor.)

Data set [2] can be described thus: Brain penetration study in rat (Kp,uu,brain). Format: in vivo. Particulars: brain and plasma (unbound); 7-week-old SD-type or WKY-type rat; subcutaneous or oral administration; plasma and brain collected 0.5, 1 or 2 hours after administration; LC-MS; read-out: Kp,uu,brain (Unbound brain-to-plasma drug concentration ratio). The procedure: In this study, the brain penetration of the present compounds can be evaluated. Specifically, a 7-week-old SD-type or WKY-type rat received the subcutaneous administration of a solution of the present compound in saline or the oral administration of a suspension of the present compound in methylcellulose. Plasma and brain were collected from the treated rat 0.5 hour, 1 hour or 2 hours after the administration, and then the concentrations of the present compound in the plasma and the brain were measured by a LC-MS method.
The protein binding ratios of the present compound to the plasma and the brain were measured by an equilibrium dialysis method.
The concentrations of the present compound in the plasma and the brain as well as the plasma and brain protein binding ratios are applied to the following formula, and thus Kp,uu,brain (Unbound brain-to-plasma drug concentration ratio) can be calculated.
Kp,uu,brain=(the concentration of the present compound in the brain×(100−the brain protein binding ratio (%))/100)/(the concentration of the present compound in the plasma×(100−the plasma protein binding ratio (%))/100)

The EC50 is the concentration giving half of the maximal effect. Consider `Cc1ncc(CN2CCn3nc(-c4ccccn4)cc3C2)c(N)n1` [Example 22, 2-Methyl-5-{[2-(pyridin-2-yl)-6,7-dihydropyrazolo[1,5-a]pyrazin-5(4H)-yl]methyl}pyrimidine-4-amine], for which, in data set [1], the EC50 was determined as 109 nM and the Emax was 62%. For the same compound, in data set [2], the Kp uu stood at 0.2.

As to `Cc1cccnc1-c1cc2n(n1)CCN(Cc1ccc3c(n1)CCC3)C2` [Example 113], in data set [1], the concentration giving a half-maximal response (EC50) came out at 13 nM and the Emax amounted to 104%. Besides, the Kp uu in data set [2] was 0.77.

On to `Cc1ncc(CN2CCn3nc(-c4ncccc4C)c(C)c3C2)cn1` [Example 116], for which, in data set [1], the EC50 stood at 131 nM and the Emax amounted to 67%. Further, the Kp uu in data set [2] is 1.42.

Regarding `Cc1c(-c2ncccc2F)nn2c1CN(Cc1ccc(C(F)(F)F)cn1)CC2` [Example 128], in data set [1], the EC50 amounted to 36 nM and the Emax came out at 86%. The Kp uu in data set [2] was found to be 0.6.

Regarding `Fc1cccnc1-c1cc2n(n1)CCN(Cc1ccc3c(n1)CCC3)C2` [Example 129], in data set [1], the EC50 was found to be 14 nM and the Emax stood at 91%. Further, the Kp uu in data set [2] was found to be 0.58.

Consider `Cc1cccnc1-c1cc2n(n1)CCN(Cc1nc3ccccc3[nH]1)C2` [Example 144], for which, in data set [1], the 50% effective concentration (EC50) turned out to be 41 nM and the Emax was determined as 49%. Also, in data set [2], the Kp uu came to 0.79.

Take `Cc1ncc(CN2CCn3nc(-c4ncccc4F)cc3C2)cn1` [Example 171]: in data set [1], the EC50 is 252 nM and the Emax stood at 48%.

Consider `Cc1ncc(CN2CCn3nc(-c4ccccn4)c(Cl)c3C2)c(N)n1` [Example 172, 5-{[3-Chloro-2-(pyridin-2-yl)-6,7-dihydropyrazolo[1,5-a]pyrazin-5 (4H)-yl]methyl}-2-methylpyrimidine-4-amine], for which, in data set [1], the half-maximal effective concentration (EC50) amounted to 90 nM and the Emax was found to be 53%.

As for `Clc1c(-c2ccccn2)nn2c1CN(Cc1ccccc1)CC2` [Example 173, 5-Benzyl-3-chloro-2-(pyridin-2-yl)-4,5,6,7-tetrahydropyrazolo[1,5-a]pyrazine], in data set [1], the half-maximal effective concentration (EC50) was 12 nM and the Emax came out at 63%.

Consider `FC(F)(F)c1c(-c2ccccn2)nn2c1CN(Cc1ccccc1)CC2` [Example 175], for which, in data set [1], the EC50 came out at 92 nM and the Emax is 50%.

As to `Cc1ccc(CN2CCn3nc(-c4ncccn4)cc3C2)cc1` [Example 176], in data set [1], the EC50 was 41 nM and the Emax is 39%.

With `Cc1cccnc1-c1cc2n(n1)CCN(Cc1ccc(OC(F)(F)F)c(F)c1)C2` [Example 177, 5-[3-Fluoro-4-(trifluoromethoxy)benzyl]-2-(3-methylpyridin-2-yl)-4,5,6,7-tetrahydropyrazolo[1,5-a]pyrazine monohydrochloride], in data set [1], the EC50 stood at 141 nM and the Emax amounted to 39%.

Consider `Cc1cccnc1-c1cc2n(n1)CCN(Cc1ccc(Cl)c(C)n1)C2` [Example 178], for which, in data set [1], the EC50 came out at 32 nM and the Emax is 50%.

Take `Cc1c(-c2ncccc2F)nn2c1CN(Cc1ccc(C(F)F)cn1)CC2` [Example 179]: in data set [1], the concentration for a half-maximal effect (EC50) was determined as 64 nM and the Emax was 38%.

On to `Cc1cccnc1-c1cc2n(n1)CCN(Cc1ccc(CF)c(C)n1)C2` [Example 180], for which, in data set [1], the concentration giving a half-maximal response (EC50) came out at 38 nM and the Emax turned out to be 63%.

With `Cc1cccnc1-c1cc2n(n1)CCN(Cc1cc3c(cn1)CCC3)C2` [Example 181], in data set [1], the concentration giving a half-maximal response (EC50) is 43 nM and the Emax worked out at 43%.

Turning to `Cc1cccnc1-c1cc2n(n1)CCN(Cc1cc3c(cn1)COC3)C2` [Example 182], in data set [1], the EC50 is 79 nM and the Emax worked out at 47%.

For `Cc1cccnc1-c1cc2n(n1)CCN(Cc1ncc(Br)cc1F)C2` [Example 183], in data set [1], the EC50 is 108 nM and the Emax was 49%.

Take `Cc1cnc(CN2CCn3nc(-c4ncccc4C)cc3C2)c(F)c1` [Example 184]: in data set [1], the concentration for a half-maximal effect (EC50) stood at 116 nM and the Emax is 51%.

As to `Cc1cccnc1-c1cc2n(n1)CCN(Cc1cc3c(cn1)OCC3)C2` [Example 185], in data set [1], the 50% effective concentration (EC50) came to 82 nM and the Emax turned out to be 51%.

Consider `Cc1cccnc1-c1cc2n(n1)CCN(Cc1cnc3c(c1)CCCC3)C2` [Example 186], for which, in data set [1], the EC50 was determined as 51 nM and the Emax was found to be 44%.

For `Cc1cc(CN2CCn3nc(-c4ncccc4C)cc3C2)cnc1Cl` [Example 187], in data set [1], the EC50 is 32 nM and the Emax is 66%.

For `Cc1cc(CN2CCn3nc(-c4ncccc4C)cc3C2)cnc1C` [Example 188], in data set [1], the EC50 is 44 nM and the Emax stood at 63%.

Take `Cc1cccnc1-c1cc2n(n1)CCN(Cc1cnc(C)c(Cl)c1)C2` [Example 189, 5-[(5-Chloro-6-methylpyridin-3-yl)methyl]-2-(3-methylpyridin-2-yl)-4,5,6,7-tetrahydropyrazolo[1,5-a]pyrazine]: in data set [1], the EC50 is 57 nM and the Emax turned out to be 49%.

Regarding `Cc1ncc(CN2CCn3nc(-c4ncccc4C)cc3C2)c(C)n1` [Example 190, 5-[(2,4-Dimethylpyrimidin-5-yl)methyl]-2-(3-methylpyridin-2-yl)-4,5,6,7-tetrahydropyrazolo[1,5-a]pyrazine], in data set [1], the EC50 is 60 nM and the Emax turned out to be 61%.

With `Cc1ncc(CN2CCn3nc(-c4ncccc4F)cc3C2)c(C)n1` [Example 191], in data set [1], the EC50 came out at 43 nM and the Emax is 76%.

Turning to `Cc1cccnc1-c1cc2n(n1)CCN(Cc1cnc(C(F)(F)F)nc1)C2` [Example 195], in data set [1], the EC50 was determined as 84 nM and the Emax worked out at 35%.

In the case of `Cc1cccnc1-c1cc2n(n1)CCN(Cc1cnc(C(F)F)nc1)C2` [Example 196], in data set [1], the EC50 was 55 nM and the Emax was 29%.

With `Fc1cccnc1-c1cc2n(n1)CCN(Cc1cnc(C(F)(F)F)nc1)C2` [Example 198], in data set [1], the EC50 came to 45 nM and the Emax was 33%.

On to `Fc1cccnc1-c1cc2n(n1)CCN(Cc1cnc(C(F)F)nc1)C2` [Example 199], for which, in data set [1], the EC50 is 101 nM and the Emax was 36%.

For the compound `Cc1cccnc1-c1cc2n(n1)CCN(Cc1cnc(C(C)C)nc1)C2` [Example 203], in data set [1], the half-maximal effective concentration (EC50) came out at 37 nM and the Emax was 54%.

`CC(C)c1ncc(CN2CCn3nc(-c4ncccc4F)cc3C2)cn1` [Example 204]: in data set [1], the concentration giving a half-maximal response (EC50) is 44 nM and the Emax was found to be 50%.
